Source: patent US20230346820A1, “METHODS AND COMPOSITIONS FOR THE TREATMENT OF SARS-COV-2” (priority 2020, published 2023)
Counter-ions that a name gives are not always drawn. Like-named read-outs stand apart in the source and are kept apart here.

Experiments:
HeLa-ACE2 cells = experiment: cells; format: cell-based, human; conditions: Homo sapiens, HeLa-ACE2, read-out: HeLa-ACE-2 EC50 [μM] (Geomeans, n ≥ 2)
SARS-CoV-2 [1] = system: SARS-CoV-2
in vitro [2] = conditions: human
SARS-CoV-2 [3] = experiment: microbe, parasite or virus in culture; conditions: Severe acute respiratory syndrome coronavirus 2, HeLa-ACE2, 24 h, read-out: CoV-2 EC50 [μM] (Geomeans, n ≥ 2)
SARS-CoV-2 [4] = conditions: Table 4
in vitro [5] = conditions: human; remark: listed apart in the source
Description: To assess cell viability, 2 μL of 50% Cell-Titer Glo (Promega No G7573) diluted in water was added to the cells and luminescence measured on an EnVision Plate Reader (Perkin Elmer).
Data analysis. […] Primary in vitro screen and the host cell cytotoxicity counter screen data were uploaded to Genedata Screener, Version 16.0.3-Standard. […] For the uninfected host cell cytotoxicity counter screens, 40 μM puromycin (Sigma) was used as the positive (inhibitory) control in HeLa-ACE2, HepG2 and HEK293T cells, and 30 μM puromycin (Sigma) was used as the positive (inhibitory) control for Calu-3 cells. For dose response experiments compounds were tested in technical triplicates on different assay plates and dose curves were fitted with the four parameter Hill Equation. Technical replicate data were analyzed using median condensing. Geometric means and geometric standard deviations are reported for compound activities (EC50s and CC50s) obtained in multiple independent biological experiments. […] Geometric means were calculated by computing the logarithm (base 10) of all values, calculating the mean of these logarithms, and taking the antilog of that mean. Geometric standard deviations were computed by taking the standard deviation of the log-transformed individual values and taking the antilog of that standard deviation. The geometric standard deviation is a unitless ratio and reported as ×÷ instead of +/−.

SARS-CoV-2 [6] = experiment: microbe, parasite or virus in culture; conditions: Severe acute respiratory syndrome coronavirus 2, Calu-3, 48 h, read-out: Calu-3 CoV-2 EC50 [μM]
[7] = CC50 [μM] (Geomeans, n ≥ 2 except where indicated: *n = 1)
[8] = HeLa-ACE2 Uninfected Tox CC50 [μM], Table 4, aggregated data, Geomean, n = 3

Compound: Cc1ccc(C(=O)Nc2cccc(C(F)(F)F)c2)cc1NC(=O)c1cccc2c(N)nccc12 [RFM-011-761-3]
- EC50 (HeLa-ACE2 cells): > 9.06 µM
- HeLa-ACE2 CC50/CoV-2 EC50 (SARS-CoV-2 [1]): >3.37
- CC50 (in vitro [2]; [7]): > 21.2 µM
- EC50 (SARS-CoV-2 [3]): 6.31 µM

Compound: COc1ccc(C2(c3ccccc3)NC(=O)N(CCCN3CCC(c4ccccc4)CC3)C2=O)cc1 (stereo not shown) [ROPITOIN]
- EC50 (HeLa-ACE2 cells): > 9.59 µM
- HeLa-ACE2 CC50/CoV-2 EC50 (SARS-CoV-2 [1]): 5.28
- CC50 (in vitro [2]; [7]): 21.5 µM
- EC50 (SARS-CoV-2 [3]): 4.08 µM

Compound: CC(=O)N1C[C@H](O)C[C@H]1C(=O)N[C@@H](CCCNC(=N)N)C(=O)c1nc2ccccc2s1 [RWJ-56423]
- Calu3 SI CC50/CoV-2 EC50 (SARS-CoV-2 [4]): >24
- CC50 (in vitro [2]; [8]): > 39.8 µM
- CC50 (in vitro [5]): > 29.9 µM
- EC50 (SARS-CoV-2 [6]): 1.23 µM

Compound: Cc1cn2nc(-c3cc(=O)n4cc(N5CCNC6(CC6)C5)ccc4n3)cc(C)c2n1 [Risdiplam]
- EC50 (HeLa-ACE2 cells): > 7.05 µM
- HeLa-ACE2 CC50/CoV-2 EC50 (SARS-CoV-2 [1]): 2.53
- CC50 (in vitro [2]; [7]): > 17.8 µM
- EC50 (SARS-CoV-2 [3]): > 7.05 µM

Compound: CCOC(=O)/C=C/[C@H](C[C@@H]1CCNC1=O)NC(=O)[C@@H](CC(=O)[C@@H](NC(=O)c1cc(C)on1)C(C)C)Cc1ccc(F)cc1 [Rupinavir]
- EC50 (HeLa-ACE2 cells): > 9.59 µM
- HeLa-ACE2 CC50/CoV-2 EC50 (SARS-CoV-2 [1]): 4.15
- CC50 (in vitro [2]; [7]): > 39.8 µM
- EC50 (SARS-CoV-2 [3]): > 9.59 µM

Compound: CC(CN1CCN(c2cccc3c2CCCN3)CC1)NC(=O)c1ccc(F)cc1 (stereo not shown) [SLV-307]
- EC50 (HeLa-ACE2 cells): > 6.7 µM
- HeLa-ACE2 CC50/CoV-2 EC50 (SARS-CoV-2 [1]): 4.15
- CC50 (in vitro [2]; [7]): > 39.8 µM
- EC50 (SARS-CoV-2 [3]): > 9.59 µM

Compound: CN(C)CCC1CCc2cc(OCc3ccc(-c4ccccc4)cc3)ccc2C1 (stereo not shown) [TAK-070]
- EC50 (HeLa-ACE2 cells): > 5.5 µM
- HeLa-ACE2 CC50/CoV-2 EC50 (SARS-CoV-2 [1]): 7.19
- CC50 (in vitro [2]; [7]): 10.1 µM
- EC50 (SARS-CoV-2 [3]): 1.41 µM

Compound: COc1cc(CC2c3cc(OC)c(OC)cc3CCN2C)c(Oc2cc3c(cc2OC)-c2c(O)c(OC)cc4c2C(C3)N(C)CC4)cc1OC (stereo not shown) [Thalicarpine Analog]
- EC50 (HeLa-ACE2 cells): > 8.78 µM
- HeLa-ACE2 CC50/CoV-2 EC50 (SARS-CoV-2 [1]): 26.77
- CC50 (in vitro [2]; [7]): > 21.5 µM
- EC50 (SARS-CoV-2 [3]): > 0.8 µM

Compound: CN1CCN(CCCN2c3ccccc3Sc3ccc(S(=O)(=O)N(C)C)cc32)CC1 [Thioproperazine]
- EC50 (HeLa-ACE2 cells): > 9.59 µM
- HeLa-ACE2 CC50/CoV-2 EC50 (SARS-CoV-2 [1]): 7.29
- CC50 (in vitro [2]; [7]): 22.1 µM
- EC50 (SARS-CoV-2 [3]): 3.03 µM

Compound: NC(N)=Nc1ncc(Cl)c2ccc(-c3cccc(C(=O)O)c3)cc12 [UK-356202]
- Calu3 SI CC50/CoV-2 EC50 (SARS-CoV-2 [4]): >15
- CC50 (in vitro [2]; [8]): > 39.8 µM
- CC50 (in vitro [5]): > 29.9 µM
- EC50 (SARS-CoV-2 [6]): 1.92 µM

Compound: COC(=O)C1=C(C)NC(C)=C(C(=O)OCCCCNC[C@@H](O)COc2ccccc2)C1c1cccc([N+](=O)[O-])c1 (stereo partly shown) [YM 430]
- EC50 (HeLa-ACE2 cells): > 7.8 µM
- HeLa-ACE2 CC50/CoV-2 EC50 (SARS-CoV-2 [1]): 7.01
- CC50 (in vitro [2]; [7]): > 20.2 µM
- EC50 (SARS-CoV-2 [3]): 2.88 µM

Compound: CC(=N)N1CCC(Oc2ccc(N(Cc3ccc4ccc(C(=N)N)cc4c3)S(=O)(=O)CC(=O)O)cc2)CC1 [YM 60828]
- Calu3 SI CC50/CoV-2 EC50 (SARS-CoV-2 [4]): >9
- CC50 (in vitro [2]; [8]): > 39.8 µM
- CC50 (in vitro [5]): > 29.9 µM
- EC50 (SARS-CoV-2 [6]): 3.38 µM

Compound: C=CCc1c(OCCCNCc2ccccc2)ccc2c1[nH]c1ccccc12 [YM-75440]
- EC50 (HeLa-ACE2 cells): > 6.58 µM
- HeLa-ACE2 CC50/CoV-2 EC50 (SARS-CoV-2 [1]): 4.89
- CC50 (in vitro [2]; [7]): 8.01 µM
- EC50 (SARS-CoV-2 [3]): 1.64 µM

Compound: OCCN1CCN(CC/C=C2\c3ccccc3Sc3ccc(Cl)cc32)CC1 [ZUCLPEN THIXL]
- EC50 (HeLa-ACE2 cells): > 9.59 µM
- HeLa-ACE2 CC50/CoV-2 EC50 (SARS-CoV-2 [1]): >8.08
- CC50 (in vitro [2]; [7]): > 16.8 µM
- EC50 (SARS-CoV-2 [3]): 2.08 µM

Compound: C[C@@H](n1cnc2cc(Cl)ccc2c1=O)[C@](O)(Cn1cncn1)c1ccc(F)cc1F [albaconazole]
- EC50 (HeLa-ACE2 cells): > 9.59 µM
- HeLa-ACE2 CC50/CoV-2 EC50 (SARS-CoV-2 [1]): 6.6
- CC50 (in vitro [2]; [7]): > 39.8 µM
- EC50 (SARS-CoV-2 [3]): > 6.04 µM

Compound: COCc1c(C(C)C)nc(C(C)C)c(/C=C/[C@@H](O)C[C@@H](O)CC(=O)O)c1-c1ccc(F)cc1 [cerivastatin (sodium salt)]
- Calu3 SI CC50/CoV-2 EC50 (SARS-CoV-2 [4]): >85
- CC50 (in vitro [2]; [8]): 0.308 µM
- CC50 (in vitro [5]): > 29.9 µM
- EC50 (SARS-CoV-2 [6]): 0.348 µM

Compound: COc1ccc2nc3cc(Cl)ccc3c(Nc3cc(CN4CCCC4)c(O)c(CN4CCCC4)c3)c2n1 [pyronaridine]
- EC50 (HeLa-ACE2 cells): 3.41 µM
- HeLa-ACE2 CC50/CoV-2 EC50 (SARS-CoV-2 [1]): >4.86
- CC50 (in vitro [2]; [7]): > 7.39 µM
- EC50 (SARS-CoV-2 [3]): 1.52 µM

Compound: O=C(c1ccc(OCCN2CCCCC2)cc1)c1c(-c2ccc(O)cc2)sc2cc(O)ccc12 [raloxifene hydrochloride]
- EC50 (HeLa-ACE2 cells): > 8.71 µM
- HeLa-ACE2 CC50/CoV-2 EC50 (SARS-CoV-2 [1]): >2.97
- CC50 (in vitro [2]; [7]): > 13.3 µM
- EC50 (SARS-CoV-2 [3]): 4.48 µM

Compound: COc1cc2c(Nc3ccc(Cl)c(Cl)c3F)ncnc2cc1OC[C@@H]1C[C@@H]2CN(C)C[C@@H]2C1 [tesevatinib]
- EC50 (HeLa-ACE2 cells): > 8.16 µM
- HeLa-ACE2 CC50/CoV-2 EC50 (SARS-CoV-2 [1]): >8.46
- CC50 (in vitro [2]; [7]): > 20.6 µM
- EC50 (SARS-CoV-2 [3]): 2.44 µM
